# Laboratory results from patent US20100297038A1, “Benzimidazole Derivatives And Their Use As Cooling Agents” (Givaudan S.A., priority 2008, published 2010).
# Test: Cooling intensity: panelists taste aqueous solutions, compared with menthol at 2 ppm
# Assay type: in vivo, human
# Settings: tasted by a small group of panelists
row,SMILES,Concentration with a cooling intensity similar to or slightly higher than that of a solution of menthol at 2 ppm [ppm]
1,"Cc1nc2ccccc2n1CCc1ccccc1 [Example 1, 2-methyl-1-phenethyl-1H-benzo[d]imidazole]",0.03
2,"COc1ccc(CCn2c(C)nc3ccccc32)cc1 [Example 2, 1-(4-methoxyphenethyl)-2-methyl-1H-benzo[d]imidazole]",0.1
3,"CC1CCC(C(C)C)C(O)C1 (stereo not shown) [I-Menthol, I-menthol]",2.0
4,"CCNC(=O)C1CC(C)CCC1C(C)C (stereo not shown) [WS-3, N-ethyl p-menthanecarboxamide]",1.5
